Test results reported in ChEMBL document CHEMBL5647694, “Novel orally bioavailable EZH1/2 dual inhibitors with greater antitumor efficacy than an EZH2 selective inhibitor” (Cancer Sci, 2017).
Blank lines part the entries; values can stand above or below the compound they belong to. Active and inactive are the calls of the source. The calls are words filed in the database; no cut-off is given here.

Legend:
RS4-11 = assay: Antiproliferative activity against human RS4-11 cells assessed as inhibition of cell growth; format: functional, cell-based
MV4-11 = assay: Antiproliferative activity against human MV4-11 cells assessed as inhibition of cell growth; format: functional, cell-based
G-401 = assay: Antitumor activity against human G-401 cells xenografted in female CAnN.Cg-Foxn1nu/CrlCrljFoxn1nu/Foxn1nu mouse assessed as suppression of tumor growth at 50 mg/kg, po qd for 12 days; format: functional, organism-based; conditions: time 12.0 day
NCI-N87 [1] = assay: Antitumor activity against human NCI-N87 cells xenografted in female CAnN.Cg-Foxn1nu/CrlCrljFoxn1nu/Foxn1nu mouse assessed as tumor regression at 50 mg/kg, po qd for 28 days; format: functional, organism-based; conditions: time 28.0 day
NCI-N87 [2] = assay: Antitumor activity against human NCI-N87 cells xenografted in female CAnN.Cg-Foxn1nu/CrlCrljFoxn1nu/Foxn1nu mouse assessed as tumor regression at 50 mg/kg, po qd for 28 days and measured for 40 days after drug dosing cessation; format: functional, organism-based; conditions: time 28.0 day
KARPAS-422 [3] = assay: Antitumor activity against human KARPAS-422 cells xenografted in FOX CHASE SCID C.B.17/Icr-scid/scid Jc1 mouse assessed as inhibition of tumor growth administered orally BID for 16 days; format: functional; conditions: dose lower 40.0 mg/kg, dose upper […], route po, time 16.0 day
KARPAS-422 [4] = assay: Antitumor activity against human KARPAS-422 cells xenografted in FOX CHASE SCID C.B.17/Icr-scid/scid Jc1 mouse assessed as inhibition of tumor growth at 160 mg/kg, po BID for 16 days; format: functional, organism-based; conditions: time 16.0 day
Mus musculus = assay: In vivo inhibition of EZH1/2 in FOX CHASE SCID C.B.17/Icr-scid/scid Jc1 mouse xenografted with human KARPAS-422 cells assessed as decrease in H3K27me3 level in tumor at 40 to 160 mg/kg, po BID for 16 days and measured 1 day after cessation of drug dosing; format: functional, organism-based; conditions: dose lower 40.0 mg/kg, dose upper […], time 16.0 day
[5] = Cmax in BALB/c mouse at 40 mg/kg administered as single dose; format: ADME, organism-based; conditions: in vivo, route po
[6] = AUC (0 to 24 hrs) in BALB/c mouse at 40 mg/kg administered as single dose; format: ADME, organism-based; conditions: in vivo, route po

EC50 (RS4-11): 1960 nM | EC50 (MV4-11): 525 nM
SMILES: CCCc1cc(C)[nH]c(=O)c1CNC(=O)c1cc(-c2ccc(N3CCN(C(C)C)CC3)nc2)cc2c1cnn2C(C)C

SMILES: Cc1cc(C)c(CNC(=O)c2cc(Br)c3c(c2C)OC(C)(C2CCC(N(C)C)CC2)O3)c(=O)[nH]1 (stereo not given)
Activity (G-401): Active | Activity (NCI-N87 [1]): inactive | Activity (NCI-N87 [2]): Active

Cmax [5]: 6 µM | AUC(0-t) [6]: 45 µM·h
SMILES: CCN1CCN(c2ccc(-c3cc(C(=O)NCc4c(C)cc(C)[nH]c4=O)c(C)c4c3O[C@](C)(CN3CCOCC3)O4)cn2)CC1
Activity (KARPAS-422 [3]): Dose-Dependent Effect | Activity (KARPAS-422 [4]): Active | inhibition (Mus musculus): Active
